Read-outs that look alike come from different tables or passages of the source.
Assays:
[1] = system: WI-38 cells; experiment: Long-term effects on cell viability (5 days, ATP; morphology, PI imaging); format: cell-based; settings: 10 μM; for Luminescence signal for ATP measurement, day-1 Average / Luminescence signal for ATP measurement, day-2 Average / Luminescence signal for ATP measurement, day-3 Average / Luminescence signal for ATP measurement, day-4 Average / Luminescence signal for ATP measurement, day-5 Average / viability at 10 µM: Batch 1; for Luminescence signal for ATP measurement, day-1 Average / Luminescence signal for ATP measurement, day-2 Average / Luminescence signal for ATP measurement, day-3 Average / Luminescence signal for ATP measurement, day-4 Average / Luminescence signal for ATP measurement, day-5 Average: n = 6, day-0 luminescence = 320956 ± 24708; for viability at 10 µM: Homo sapiens, WI-38, 120 h, DMSO ctrl = 100.0%, read-out: ATP luminescence by day-5 normalized; for Luminescence signal for ATP measurement, day-5 Average / viability at 10 µM: day-5; for O = Potential toxicity / Q = Potential toxicity: human, 5 days;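 on Luminescence signal for ATP measurement, day-2 Average: compounds at 10 µM with ATP read daily over 5 days of treatment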;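 on Luminescence signal for ATP measurement, day-3 Average: compounds at 10 µM with ATP read daily over 5 days of treatment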;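 on Luminescence signal for ATP measurement, day-4 Average: compounds at 10 µM with ATP read daily over 5 days of treatment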;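 on Luminescence signal for ATP measurement, day-5 Average: compounds at 10 µM with ATP read daily over 5 days of treatment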
[2] = system: WI-38 cells; experiment: Propidium iodide (PI) cell-death imaging upon H2O2 stress; format: cell-based, human; settings: for Assay 7: H2O2-resistant, at 10 uM, validated by propidium iodide (PI) cell-death imaging: w/H2O2, 3 hrs/4 hrs/5 hrs, YES/NO; for cytotoxicity at 10 µM: Homo sapiens, WI-38
[3] = system: human dermal fibroblast (HDF) primary cells; experiment: H2O2-resistance in primary human dermal fibroblasts; format: cell-based; settings: for fold induction at 10 µM: Homo sapiens; for Assay 6: H2O2-resistant, at 10 uM, human dermal fibroblast (HDF) primary cells: YES/NO
[4] = system: NRF2; experiment: qPCR analysis of NRF2-regulated genes; format: cell-based, human; settings: for fold induction at 10 µM: Homo sapiens; for Potential NRF2 Activation (>=2 target genes induced, by >=1.5-fold): Assay 13(p)
Procedure, shortened: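 Expression of HMOX1, NQO1, GCLC and GSTM1 measured by qPCR relative to B2M, PPIA and GAPDH. Cells were WI-38 fibroblasts exposed 24 hrs to 10 μM compound, with RNA and cDNA prepared via Cells-to-Ct. Where stated, cells were first transfected 36 hrs with FOXO3 or NRF2 siRNA at 10 nM.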

[5] = Summary score for characterization of 38 core set hits; settings: for D = Triple resistant: 2-point score, multiplex resistance (cadmium, MMS, H2O2); for C = H2O2- & Cd-resistant: score, resistance to both H2O2 and cadmium
Procedure, shortened: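 First, H2O2-resistance screen hits were characterized for longevity-related phenotypes, and each major one (multiplex resistance, FOXO3/NRF2 activation, mTOR down-regulation) received 2 points. Next, C. elegans lifespan extension was scored 0 to 2 from 4 to 6 trials. Finally, human-cell genotoxicity or toxicity subtracted a point.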

[6] = H2O2 3 hrs, 10 uM, n = 6, negative control 5.44% ± 0.79%, read-out: Percentage of propidium iodide-positive dead cells (under H2O2 stress treatment), 3 hrs
[7] = pre-treatment at 10 uM, 3.5 hours of H2O2, DMSO control 27.4% ± 6.5%, */**/*** = reduced by one/two/three standard deviations, read-out: Percentage of propidium iodide-positive dead cells (under H2O2 stress treatment), at 10 uM
[8] = Experiment 1, HDF cells, read-out: Experiment 1, HDF cells (under H2O2 stress treatment), at 10 uM (fold change)
[9] = Experiment 2, HDF cells, read-out: Experiment 2, HDF cells (under H2O2 stress treatment), at 10 uM (fold change)
[10] = 24 h, Assay 12(o), at 10 uM, qPCR, read-out: Induction of NRF2-regulated genes: GCLC normalized fold-change
[11] = rounded fold change, WI-38 cells, 10 μM, 24 hrs, read-out: Summary of effects on NRF2-regulated genes: GCLC
[12] = 10 μM, 24 hrs, WI-38 cells, qPCR, normalized to B2M, n = 4, read-out: GCLC expression, normalized fold change (NRF2-regulated gene)
[13] = WI-38 cells, 10 μM, 24 hrs, n=4, qPCR normalized by B2M, read-out: GCLC Normalized fold change
[14] = WI-38 cells, 10 μM, 24 hrs, n=4, qPCR normalized by B2M, read-out: GSTM1 Normalized fold change
[15] = WI-38 cells, 10 μM, 24 hrs, n=4, qPCR normalized by B2M, read-out: HMOX1 Normalized fold change
[16] = WI-38 cells, 10 μM, 24 hrs, n=4, qPCR normalized by B2M, read-out: NQO1 Normalized fold change
[17] = H2O2 4 hrs, 10 uM, n = 6, negative control 16.81% ± 1.42%, read-out: Percentage of propidium iodide-positive dead cells (under H2O2 stress treatment), 4 hrs
[18] = H2O2 5 hrs, 10 uM, n = 6, negative control 22.50% ± 1.53%, read-out: Percentage of propidium iodide-positive dead cells (under H2O2 stress treatment), 5 hrs
[19] = 24 h, Assay 12(o), at 10 uM, qPCR, read-out: Induction of NRF2-regulated genes: GSTM1 normalized fold-change
[20] = 24 h, Assay 12(o), at 10 uM, qPCR, read-out: Induction of NRF2-regulated genes: HMOX1 normalized fold-change
[21] = rounded fold change, WI-38 cells, 10 μM, 24 hrs (RP11 for Gr-1D, RP29 for Gr-4D), read-out: Summary of effects on NRF2-regulated genes: HMOX1
[22] = rounded fold change, WI-38 cells, 10 μM, 24 hrs (RP29 for Gr-4D), read-out: Summary of effects on NRF2-regulated genes: GSTM1
[23] = 10 μM, 24 hrs, WI-38, read-out: Expression of at least two NRF2 target genes
[24] = 10 μM, 24 hrs, WI-38 cells, qPCR, normalized to B2M, n = 4, read-out: GSTM1 expression, normalized fold change (NRF2-regulated gene)
[25] = 10 μM, 24 hrs, WI-38 cells, qPCR, normalized to B2M, n = 4, read-out: HMOX1 expression, normalized fold change (NRF2-regulated gene)

SMILES	Luminescence signal for ATP measurement, day-1 Average [1]	Luminescence signal for ATP measurement, day-2 Average [1]	Luminescence signal for ATP measurement, day-3 Average [1]	Luminescence signal for ATP measurement, day-4 Average [1]	Luminescence signal for ATP measurement, day-5 Average [1]	viability at 10 µM [1]	O = Potential toxicity [1]	Q = Potential toxicity [1]	Assay 7: H2O2-resistant, at 10 uM, validated by propidium iodide (PI) cell-death imaging ([2]; 10 uM)	cytotoxicity at 10 µM [2, 6]	cytotoxicity at 10 µM [2, 7]	fold induction at 10 µM [3, 8]	fold induction at 10 µM [3, 9]	Assay 6: H2O2-resistant, at 10 uM, human dermal fibroblast (HDF) primary cells [3]	F = Potential NRF2 Activation ([4]; 2-point score)	fold induction at 10 µM [4, 13]	fold induction at 10 µM [4, 14]	fold induction at 10 µM [4, 15]	fold induction at 10 µM [4, 16]	F = Potential NRF2 Activation ([4]; summary score)	further results
CC(C)(C)c1ccc(OCC(=O)Nc2ccc3c4c(cccc24)C(=O)NC3=O)cc1 [O22]	435891	566145	690403	840178	805461	78.4%	0	0	YES	4.84%	4.1%	15.3	49.6	YES	0	0.659	0.877	0.765	0.929	0	fold induction at 10 µM [4, 10]: 0.66; fold induction at 10 µM [4, 11]: 0.66; fold induction at 10 µM [4, 12]: 0.66; D = Triple resistant [5]: 2; S = Sum of Negative scores ([5]; human): 0; C = H2O2- & Cd-resistant [5]: 1
O=C1NCCCc2cc(Cl)sc21 [O1]	461478	722566	824266	1101026	977541	95.2%	0	0	YES	5.8%	20.4%	2.95	17.8	YES	0	1.21	1.09	1.25	1.08	0	D = Triple resistant [5]: 0; S = Sum of Negative scores ([5]; human): 0; C = H2O2- & Cd-resistant [5]: 1
Cc1ccc(NC(=O)c2ccc([N+](=O)[O-])o2)cc1C [Gr-1F]	383221	440655	446240	534298	600633	58.5%	1	1	YES	3.55%	11.2%	5.84	52.3	YES	0	1.62	1.72	1.09	1.11	0	cytotoxicity at 10 µM [2, 17]: 3.07%; cytotoxicity at 10 µM [2, 18]: 4.57%; fold induction at 10 µM [4, 10]: 1.35; fold induction at 10 µM [4, 19]: 1.28; fold induction at 10 µM [4, 20]: 0.82; fold induction at 10 µM [4, 11]: 1.62; fold induction at 10 µM [4, 12]: 1.62; D = Triple resistant [5]: 0; S = Sum of Negative scores ([5]; human): 2; C = H2O2- & Cd-resistant [5]: 1
COc1ccc(C(=O)/C=C/c2cccc(Cl)c2)c(OC)c1 [Gr-4C]	413360	474171	485641	769380	813018	79.2%	0	0	YES	4.02%	17.4%	4.32	3.15	YES	2	2.51	1.63	89.5	5	2	cytotoxicity at 10 µM [2, 17]: 6.21%; Potential NRF2 Activation (>=2 target genes induced, by >=1.5-fold) [4]: YES; fold induction at 10 µM [4, 10]: 2.51; fold induction at 10 µM [4, 19]: 1.63; fold induction at 10 µM [4, 20]: 89.5; fold induction at 10 µM ([4]; 24 h, Assay 12(o), at 10 uM, qPCR, read-out: Induction of NRF2-regulated genes: NQO1 normalized fold-change): 5; fold induction at 10 µM [4, 21]: 89.5; fold induction at 10 µM [4, 22]: 1.63; fold induction at 10 µM ([4]; rounded fold change, WI-38 cells, 10 μM, 24 hrs (RP29 for Gr-4D), read-out: Summary of effects on NRF2-regulated genes: NQO1): 5; fold induction at 10 µM [4, 11]: 2.51; fold induction at 10 µM [4, 23]: > 1.5; fold induction at 10 µM [4, 12]: 2.51; fold induction at 10 µM [4, 24]: 1.63; fold induction at 10 µM [4, 25]: 89.5; fold induction at 10 µM ([4]; 10 μM, 24 hrs, WI-38 cells, qPCR, normalized to B2M, n = 4, read-out: NQO1 expression, normalized fold change (NRF2-regulated gene)): 5; D = Triple resistant [5]: 0; C = H2O2- & Cd-resistant [5]: 0; S = Sum of Negative scores ([5]; sum of columns Q and R): 0
O=C(NCc1cccnc1)/C(=C/c1ccc(-c2ccc(Cl)cc2)o1)S(=O)(=O)c1ccccc1 [Gr-7C]	378655	140712	84446	72490	127440	12.4%	0	1	YES	0.82%	12.5%	0.074	8.33	YES	2	2.27	0.784	28	0.811	2	cytotoxicity at 10 µM [2, 17]: 2.36%; cytotoxicity at 10 µM [2, 18]: 3.73%; Potential NRF2 Activation (>=2 target genes induced, by >=1.5-fold) [4]: YES; fold induction at 10 µM [4, 10]: 2.27; fold induction at 10 µM [4, 19]: 0.78; fold induction at 10 µM [4, 20]: 28.1; fold induction at 10 µM [4, 21]: 28.1; fold induction at 10 µM [4, 22]: 0.78; fold induction at 10 µM [4, 11]: 2.27; fold induction at 10 µM [4, 23]: > 1.5; fold induction at 10 µM [4, 12]: 2.27; fold induction at 10 µM [4, 24]: 0.78; fold induction at 10 µM [4, 25]: 28.1; D = Triple resistant [5]: 0; S = Sum of Negative scores ([5]; human): 1; C = H2O2- & Cd-resistant [5]: 0

Source: patent publication US11413278B2, “Compounds and methods for promoting stress resistance” (priority 2015, dated 2022)
